Columns and labels:
Experiment in all cases: Inhibition of cancer cell growth as measured by cell number
Assay type in all cases: cell-based, human
A431 = conditions: A431, 48 hours, Table 8
From the text: (§1) The cell lines were chosen since they overexpressed epidermal growth factor receptor (EGFR) (i.e. A431) or HER2/neu (SKBR3), or had little to no expression of the these receptors (SW620, LOX, MCF7).

SW620 = conditions: SW620, 48 hours, Table 8
From the text: as §1

SKBR3 = conditions: SKBR3, 48 hours, Table 8
From the text: as §1

- Inhibition of Cancer Cell Growth as Measured by Cell Number (IC50) (A431): 0.03 µg/mL
- Inhibition of Cancer Cell Growth as Measured by Cell Number (IC50) (SW620): 0.1 µg/mL
- Inhibition of Cancer Cell Growth as Measured by Cell Number (IC50) (SKBR3): 0.03 µg/mL
SMILES: CCCN(CC#CC(=O)Nc1ccc2ncc(C#N)c(Nc3cccc(Br)c3)c2c1)CCC [Example 170, N-{4-[(3-Bromophenyl)amino]-3-cyano-6-quinolinyl}-4-dipropylamino-2-butynamide]

— patent US6002008A, “Substituted 3-cyano quinolines” (American Cyanamid Company, priority 1998, dated 1999)
